In patent publication US6943190B2, “Method of using pyruvate and/or its derivatives for the treatment of cytokine-mediated inflammatory conditions” (University of Pittsburgh-of the Commonwealth System of …, priority 2001, dated 2005):

Assays:
[1] = test system: lethal endotoxemia (E. coli lipopolysaccharide); assay: Lethal endotoxemia (LPS) in mice: survival and morbidity; type: in vivo, Balb/C mice; settings: for survival: P<0.005
Experimental: Animal Experiments. Male 6-8 week old Balb/C mice (20-25 g) were purchased from Harlen Sprague-Dawley (Indianapolis, Ind.) and allowed to acclimate for 7 days housed at 25° C. on a 12 h light/dark cycle. Animals were randomly grouped (10 mice per group) and assigned to a specific experiment. All animal experiments were performed in accordance with the National Institutes of Health Guidelines under protocols approved by the Institutional Animal Care and Use Committee of North Shore University Hospital and New York University Medical School.
(§1) Endotoxin shock. Mice were injected with endotoxin (Escherichia coli lipopolysaccharide, LPS 0111:B4; Sigma Chemical Co, St. Louis, Mo.) that was dissolved in sterile pyrogen-free saline at stock concentrations of 10 mg/ml. LPS solutions were sonicated for 20 min immediately prior to use for each experiment. Mice received an LD75 dose of LPS (5 mg/kg, i.p.). Blood was collected at different times after LPS administration, allowed to clot for 2 h at room temperature, then centrifuged for 20 min at 1,500 g. Serum samples were stored at […] prior to analysis. Mortality was recorded for up to 3 weeks after injection to ensure that no additional late deaths occurred.
Ethyl Pyruvate Solution: Ethyl pyruvate was prepared in solution with sodium (130 mM), potassium (4 mM), calcium (2.7 mM), chloride (130 mM), and ethyl pyruvate (28 mM); pH 7.0). For injections in mice solutions were diluted so that each injection volume was 0.4 ml per dose.
The initial evaluation of ethyl pyruvate (EP) was conducted as a therapeutic solution in lethal systemic inflammation in a standard model of murine endotoxemia. Balb/c mice received a single dose of ethyl pyruvate (40 mg ethyl pyruvate/kg mouse) 30 minutes before the onset of lethal endotoxemia (E. coli lipopolysaccharide, LPS, 5 mg LPS/kg, i.p.). Ethyl pyruvate pretreatment protected BALB/c mice from lethal endotoxemia (ethyl pyruvate survival=20/20 versus vehicle control survival=3/20; P<0.005) (FIG. 3A).
The therapeutic efficacy of the delayed administration of ethyl pyruvate after the onset of endotoxemia was assessed. Ethyl pyruvate dosing in endotoxemic mice was initiated 4 hours after the onset of endotoxemia, when clinical signs were already evident, including diarrhea, piloerection, and depressed spontaneous activity (FIG. 4A).

HMGB-1 [2] = assay: HMGB-1 release from LPS-stimulated RAW264.7 macrophage cultures (western blot); type: cell-based, murine
Experimental: (§2) Cell Culture. BALB/c murine macrophage-like RAW 264.7 cells obtained from the American Type Culture Collection (ATCC Number TIB-71, ATCC, Rockville, Mass.) (61), were cultured in RPMI 1640 (Life Technologies, Grand Island, N.Y.) supplemented with 10% heat inactivated fetal bovine serum (Gemini, Calabasas, Calif.), 2 mM glutamine (Cat. # 25030-149, Gibco BRL, Rockville, Mass.) and antibiotic-antimycotic mix (Cat. # 15240-062, Gibco BRL, Rockville, Mass.) in a humidified incubator with 5% CO2. Cells were mechanically removed and resuspended in serum-free Opti-MEM I medium (Life Technology, Grand Island, N.Y.) to perform experiments at 75% confluence.
(§3) Cytokine measurements. TNF concentration in mouse serum and in conditioned media from RAW 264.7 cell cultures was measured by ELISA (minimum detectable concentration=10 pg/ml). […] Mouse serum IL-6 and IL-1β levels were measured using ELISA kits (R&D Systems, Inc., Minneapolis, Minn.). HMGB-1 was analyzed by western blot as previously described by Wang et al, 1999. […] Protein was electroblotting to Immun-blot PVDF membrane (Bio-rad, Hercules Calif.) and HMGB-1 was analyzed using polyclonal 241 antibody and secondary anti-rabbit horseradish peroxidase (Amersham, Pitscataway, N.J.). Standard curves were constructed using r-HMGB-1, and the intensity of the 30 kD band analyzed by densitometry. […]

HMGB-1 [3] = assay: Serum HMGB-1 in endotoxemic mice (western blot); type: in vivo, Balb/C mice; settings: for serum HMGB1: pretreatment 40 mg/kg 30 min before LPS, measured 20 hours after onset of endotoxemia
Experimental: as §1
Cytokine measurements. TNF concentration in mouse serum and in conditioned media from RAW 264.7 cell cultures was measured by ELISA (minimum detectable concentration=10 pg/ml). Recombinant mouse TNF standards were obtained from R&D Systems (Inc., Minneapolis, Minn.) and dissolved in 0.1% bovine serum albumin solution (BSA, low endotoxin grade from Sigma Chemical Co., St. Louis, Mo.). Monoclonal antibody to mouse TNF was purchased from Biosource International, Inc., Camarillo, Calif. Human TNF monoclonal antibody, human TNF antiserum and mouse TNF antiserum were prepared and contributed by Dr. Christine Metz. Mouse serum IL-6 and IL-1β levels were measured using ELISA kits (R&D Systems, Inc., Minneapolis, Minn.). HMGB-1 was analyzed by western blot as previously described by Wang et al, 1999. […] Protein was electroblotting to Immun-blot PVDF membrane (Bio-rad, Hercules Calif.) and HMGB-1 was analyzed using polyclonal 241 antibody and secondary anti-rabbit horseradish peroxidase (Amersham, Pitscataway, N.J.). Standard curves were constructed using r-HMGB-1, and the intensity of the 30 kD band analyzed by densitometry. […]
The therapeutic efficacy of the delayed administration of ethyl pyruvate after the onset of endotoxemia was assessed. […]

[4] = Stability of pyruvate esters in aqueous solution; type: physicochemical; settings: in the presence of calcium salts; compared with sodium pyruvate
TNF = TNF release by LPS-stimulated RAW 264.7 macrophage cultures (ELISA); type: cell-based, murine
Experimental: as §2, §3

In the case of CCOC(=O)C(C)=O [ethyl pyruvate], the “clinical signs of morbidity” value ([1]; delayed treatment beginning 4 hours after LPS) is reported as “reversed clinical signs of morbidity”, the survival ([1]; delayed treatment: 40 mg/kg i.p. at 4, 8, 12, 24 and 30 hours after LPS, vehicle 5/20) is reported as 17/20 and the “clinical manifestations of endotoxin morbidity” value ([1]; pretreatment 40 mg/kg 30 minutes before LPS 5 mg/kg i.p.) is reported as “significantly prevented the clinical manifestations of endotoxin morbidity”. The survival ([1]; pretreatment: single dose 40 mg/kg i.p. 30 minutes before LPS 5 mg/kg i.p., vehicle 3/20) was 20/20, the survival ([1]; pretreatment: single dose 40 mg/kg i.p. 30 minutes before LPS 5 mg/kg i.p., vehicle 3/20, listed as EP) was “conferred significant protection against lethality” and the “total intracellular (cell associated) HMGB1 protein concentration” value (HMGB-1 [2]; RAW264.7 cells treated with 1, 5 or 10 mM, 10 or 20 h) was “did not significantly influence total intracellular HMGB1 protein concentration”. For the same molecule, the “LPS-induced HMGB-1 release” value (HMGB-1 [2]; conditioned media, overnight (24 hrs) endotoxin exposure) was “significantly prevented LPS-induced HMGB-1 release in a concentration dependent manner”, the “systemic release of HMGB-1 (serum)” value (HMGB-1 [3]; delayed treatment beginning 4 hours post-LPS, measured at 20 hours) was “significantly attenuated the systemic release of HMGB-1” and the “serum HMGB1” value (HMGB-1 [3]) was “significantly attenuated”. For the same molecule, the “serum HMGB1” value (HMGB-1 [3]; listed as Ethyl pyruvate) was “significantly inhibits serum HMGB-1 levels”, the “stability of aqueous solution” value [4] was “more stable aqueous solution than sodium pyruvate” and the “synthesis of TNF at the highest doses tested” value (TNF; LPS-stimulated RAW 264.7 cells, highest doses of ethyl pyruvate) was “not completely inhibited”. The EC50 (TNF; Mus musculus, RAW264.7, RAW 264.7 cells stimulated with 50 or 100 ng/ml LPS, conditioned media, read-out: concentration that suppressed 50% of the TNF response (EC50)) was 3.4 mM.
